This is an account of results in PMC6556873, “Rapid Covalent-Probe Discovery by Electrophile-Fragment Screening” (Journal of the American Chemical Society, 2019).

The target of one series is T1, BSA (Bos taurus, UniProt P02769).
T1 construct: gene ALB
Also on record: Intact protein LC/MS covalent labelling, fragments in pools of five, 200 uM each, 4 °C. The conditions noted are these: 24 h, 4 °C, pool of five; 200 µM; covalent. The protocol: (§1) Incubations were performed at 200 μM for each compound and 2 μM of protein (10 μM for BSA) for 24 h at 4 °C with moderate shaking. Incubation buffers varied among proteins (PBS pH 7.4 for QSOX1 and BSA; 10 mM HEPES pH 7.5, 0.3 M NaCl, 0.5 mM TCEP for PCAF, UPS8, and NUDT7; […]; 10 mM Na2HPO4 pH 7.5 100 mM NaCl 5 mM β-mercaptoethanol for NV3CP; 20 mM Na phosphate pH 7.5 for NNMT; […]. The reaction was stopped by quenching with formic acid, 0.4% final concentration. Each protein was incubated with the electrophilic library in pools of five compounds per well. The pool’s composition maximized the difference in mass between fragments in the same well. Incubations were performed with each fragment at 200 μM, for 24 h at 4 °C, to allow the screening of proteins that are not stable for long time periods at higher temperatures. Following incubation, we used intact protein [compound left out] chromatography/mass spectrometry (LC/MS) to identify the fragments and quantify their labeling (Figure 3A). […] There was good agreement between the percent of labeling of NUDT7 by 100 random individual compounds and that obtained in pools of five (R^2=0.78; Figure S6 and Data set 2 in the Supporting Information).

A further series has as its target T2, OTUB2 (OTUB2A) (Homo sapiens, UniProt Q96DC9).
T2 construct: full length residues 1-234, E. coli BL21(DE3)-R3, His tag removed by TEV, construct 27312 Da
T2 sequence (Q96DC9 1-234): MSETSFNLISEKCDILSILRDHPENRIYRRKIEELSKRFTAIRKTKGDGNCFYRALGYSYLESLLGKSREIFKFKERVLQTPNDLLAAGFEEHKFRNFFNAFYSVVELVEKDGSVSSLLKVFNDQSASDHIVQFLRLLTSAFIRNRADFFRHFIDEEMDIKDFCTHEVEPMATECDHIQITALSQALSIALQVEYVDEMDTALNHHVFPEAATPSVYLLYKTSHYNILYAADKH
Also on record: Intact protein LC/MS covalent labelling, fragments in pools of five, 200 uM each, 4 °C. The note with it: 24 h, 4 °C, pool of five; 200 µM; covalent. The protocol: as §1

The next series addresses T3, PCAF (Homo sapiens, UniProt Q92831).
T3 construct: gene KAT2B
Set-up: Intact protein LC/MS covalent labelling, fragments in pools of five, 200 uM each, 4 °C. The note with it: 24 h, 4 °C, pool of five; 200 µM; covalent. Here is the method: as §1

The target in the next series is T4, NUDT7 (Homo sapiens, UniProt P0C024).
T4 construct: residues 14-235, E. coli, pNIC28-Bsa4, N-terminal His6 tag removed by TEV, construct 26672 Da
Also on record: Intact protein LC/MS covalent labelling, fragments in pools of five, 200 uM each, 4 °C. The note with it: 24 h, 4 °C, pool of five; 200 µM; covalent. The protocol: as §1

A short description of series [1]: in vitro. Set-up: species or system CCD841, HEK293. The note with it: human, hb2 cells, read-out: HB-2 Cells Viability (%).
The nature of series [2]: in vitro. Set-up: species or system HB2, HEK293. The conditions noted are these: human, ccd841 cells.
The nature of series [3]: in vitro. Also on record: species or system HB2, CCD841. The conditions noted are these: human, hek293 cells.

Read-outs that look alike come from different tables or passages of the source.

T4 sequence (P0C024 14-235): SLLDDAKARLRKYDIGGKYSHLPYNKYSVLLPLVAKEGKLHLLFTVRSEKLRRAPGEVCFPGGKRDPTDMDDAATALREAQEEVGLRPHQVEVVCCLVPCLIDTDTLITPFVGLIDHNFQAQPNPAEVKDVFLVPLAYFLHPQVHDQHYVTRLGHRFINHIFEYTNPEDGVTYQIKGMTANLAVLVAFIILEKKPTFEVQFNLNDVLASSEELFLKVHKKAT
T3 sequence (Q92831 whole entry): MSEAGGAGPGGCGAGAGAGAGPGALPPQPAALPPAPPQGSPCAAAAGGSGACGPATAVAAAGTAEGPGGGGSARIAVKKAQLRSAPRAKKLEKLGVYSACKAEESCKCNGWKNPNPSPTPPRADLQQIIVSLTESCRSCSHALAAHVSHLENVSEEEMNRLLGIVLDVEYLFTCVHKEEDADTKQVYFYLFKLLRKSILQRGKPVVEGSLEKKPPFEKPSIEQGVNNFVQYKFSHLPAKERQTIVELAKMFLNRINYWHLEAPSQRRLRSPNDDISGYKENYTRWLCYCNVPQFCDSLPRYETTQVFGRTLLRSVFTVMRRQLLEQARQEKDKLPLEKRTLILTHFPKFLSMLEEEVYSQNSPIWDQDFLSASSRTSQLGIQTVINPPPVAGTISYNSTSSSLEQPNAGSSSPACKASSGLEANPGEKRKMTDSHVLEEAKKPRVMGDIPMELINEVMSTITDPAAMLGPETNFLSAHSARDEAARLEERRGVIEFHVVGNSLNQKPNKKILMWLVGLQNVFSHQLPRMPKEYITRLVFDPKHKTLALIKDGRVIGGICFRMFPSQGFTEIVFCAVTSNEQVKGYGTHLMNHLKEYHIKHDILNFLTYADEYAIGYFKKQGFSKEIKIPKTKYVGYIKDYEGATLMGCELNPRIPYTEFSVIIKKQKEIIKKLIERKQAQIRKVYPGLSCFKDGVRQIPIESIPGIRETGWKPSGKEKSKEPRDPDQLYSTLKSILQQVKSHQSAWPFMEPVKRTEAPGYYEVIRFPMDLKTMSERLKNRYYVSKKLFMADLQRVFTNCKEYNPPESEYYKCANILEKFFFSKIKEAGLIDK
T1 sequence (P02769 whole entry): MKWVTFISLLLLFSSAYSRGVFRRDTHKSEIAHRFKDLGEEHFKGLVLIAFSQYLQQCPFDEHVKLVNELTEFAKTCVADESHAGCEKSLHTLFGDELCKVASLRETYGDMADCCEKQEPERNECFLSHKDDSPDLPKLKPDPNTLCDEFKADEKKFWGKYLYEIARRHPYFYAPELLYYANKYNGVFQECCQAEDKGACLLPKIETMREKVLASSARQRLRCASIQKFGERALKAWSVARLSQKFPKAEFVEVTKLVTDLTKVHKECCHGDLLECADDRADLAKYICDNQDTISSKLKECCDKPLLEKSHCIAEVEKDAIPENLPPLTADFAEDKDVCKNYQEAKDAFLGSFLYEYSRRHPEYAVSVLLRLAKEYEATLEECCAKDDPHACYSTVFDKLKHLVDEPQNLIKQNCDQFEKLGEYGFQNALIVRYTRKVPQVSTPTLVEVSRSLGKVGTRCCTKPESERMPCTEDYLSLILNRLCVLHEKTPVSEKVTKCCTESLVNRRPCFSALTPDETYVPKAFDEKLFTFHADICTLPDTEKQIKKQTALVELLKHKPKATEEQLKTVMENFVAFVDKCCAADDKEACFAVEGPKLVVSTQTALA

On BSA, `Cl.O=C(CCl)N1CCN(Cc2ccccc2)CC1` [PCM-0103063] registered a BSA of 0. For the same compound, on OTUB2 (OTUB2A), the OTUB2 is 0.35. For the same compound, the PCAF at PCAF was 0. This compound displayed an NUDT7 at NUDT7 of 0.07. In addition, the viability at 48 h, 10 µM in “in vitro [1]” was found to be 72.1%; in “in vitro [2]”, 81.1%; in the series “in vitro [3]” it was 60.1%.

Turning to `C=CC(=O)N1CCOCC1c1cccn1C` (stereo not shown) [PCM-0102721], at BSA, the BSA is recorded as 0. This compound also yielded an OTUB2 on OTUB2 (OTUB2A) of 0. The compound also returned a PCAF on PCAF of 0. On NUDT7, the NUDT7 was found to be 0. The viability at 48 h, 10 µM in the series “in vitro [1]” came out at 102%; in “in vitro [2]” it was 92.8%; in the series “in vitro [3]” it was 97.2%.

Consider `O=C(CCl)NCc1nc2ccccc2s1` [PCM-0102803], for which the BSA at BSA is recorded as 0. The compound further gave an OTUB2 at OTUB2 (OTUB2A) of 0.37. This compound displayed a PCAF on PCAF of 0. This compound also came in with an NUDT7 on NUDT7 of 0. Further, the viability at 48 h, 10 µM in the series “in vitro [1]” is 55.2%; in “in vitro [2]”, 63.8%; in “in vitro [3]”, 43%.

At BSA, `Cc1cc(NC(=O)CCl)n(-c2ccccc2C)n1` [PCM-0102699] had a BSA of 0. The OTUB2 on OTUB2 (OTUB2A) was determined as 0. Moreover, at PCAF, the PCAF was 0. Further, the NUDT7 at NUDT7 worked out at 0. For the same compound, the viability at 48 h, 10 µM in the series “in vitro [1]” amounted to 58.9%; in “in vitro [2]”, 81.6%; in “in vitro [3]”, 36.9%.

Consider `O=C(CCl)Nc1cc(C(F)(F)F)ccc1-n1cncn1` [PCM-0102218], for which the BSA at BSA was found to be 0. Moreover, the OTUB2 on OTUB2 (OTUB2A) was determined as 0. Besides, the PCAF on PCAF stood at 0. For the same compound, the NUDT7 on NUDT7 is reported as 0.28. Also, the viability at 48 h, 10 µM in “in vitro [1]” was 42.2%; in the series “in vitro [2]”, 63.7%; in “in vitro [3]” it was 17.7%.

Take `O=C(CCl)N1CCN(S(=O)(=O)c2ccccc2Cl)CC1` [PCM-0102837]: the BSA at BSA is given as 0. On OTUB2 (OTUB2A), this compound yielded an OTUB2 of 0. The compound further had a PCAF on PCAF of 0. Further, on NUDT7, the NUDT7 is listed as 0.18. The viability at 48 h, 10 µM in the series “in vitro [1]” came to 4.7%; in “in vitro [2]”, 46.9%; in the series “in vitro [3]” it was 6%.

Compound `O=C(CCl)NNC(=O)C1CCC1` [PCM-0103061] showed a BSA at BSA of 0. The OTUB2 on OTUB2 (OTUB2A) turned out to be 0.14. Also, on PCAF, the PCAF is 0. Also, the NUDT7 at NUDT7 is 0.28. Also, the results for the viability at 48 h, 10 µM in “in vitro [1]”, in “in vitro [2]” and in the series “in vitro [3]” were 8.2%, 30.9% and 2.3%, respectively.

As to `O=C(CCl)N1CCCC1c1cccs1` (stereo not shown) [PCM-0102393], the BSA at BSA is recorded as 0. Further, the OTUB2 on OTUB2 (OTUB2A) amounted to 0. Also, the PCAF at PCAF stood at 0. Also, on NUDT7, the NUDT7 is reported as 0.36. Moreover, the figures for the viability at 48 h, 10 µM in the series “in vitro [1]”, in “in vitro [2]” and in “in vitro [3]” were 7.5%, 39% and 2.5%, respectively.

For `C=CC(=O)NCC1=CCCOC1` [PCM-0102448], at BSA, the BSA is 0. This compound showed an OTUB2 at OTUB2 (OTUB2A) of 0. At PCAF, this compound registered a PCAF of 0. The same compound gave an NUDT7 at NUDT7 of 0.05. The viability at 48 h, 10 µM in “in vitro [1]” came out at 102%; in “in vitro [2]”, 104%; in the series “in vitro [3]”, 79.4%.

For `Cc1cc(NC(=O)CCl)on1` [PCM-0102197], the BSA at BSA came to 0. In addition, the OTUB2 at OTUB2 (OTUB2A) was determined as 0. For the same compound, the PCAF on PCAF amounted to 0. Also, at NUDT7, the NUDT7 stood at 0. Also, the viability at 48 h, 10 µM is 74.3% in the series “in vitro [1]”, 87.9% in “in vitro [2]” and 68.5% in “in vitro [3]”.

On BSA, `C=CC(=O)N1CCC2(CC1)NC(=O)C1(CCCCC1)N2` [PCM-0102520] gave a BSA of 0. The compound further gave an OTUB2 on OTUB2 (OTUB2A) of 0. The same compound had a PCAF at PCAF of 0. For the same compound, the NUDT7 on NUDT7 is on record as 0. In addition, the viability at 48 h, 10 µM in “in vitro [1]” is 101%; in “in vitro [2]”, 106%; in the series “in vitro [3]”, 107%.

Compound `C=CC(=O)NCc1snnc1C` [PCM-0103079] gave a BSA on BSA of 0. The same compound registered an OTUB2 at OTUB2 (OTUB2A) of 0. Also, at PCAF, the PCAF is recorded as 0. The compound further yielded an NUDT7 on NUDT7 of 0. Also, the viability at 48 h, 10 µM in the series “in vitro [1]” was 104%; in “in vitro [2]” it was 102%; in “in vitro [3]” it was 97%.

Compound `C=CC(=O)N1CCC(Cc2ccccn2)CC1` [PCM-0102473] yielded an OTUB2 on OTUB2 (OTUB2A) of 0. For the same compound, the PCAF at PCAF was determined as 0. In addition, the NUDT7 at NUDT7 is 0. For the same compound, the viability at 48 h, 10 µM came to 100% in the series “in vitro [1]”, 112% in the series “in vitro [2]” and 98.6% in “in vitro [3]”.

As for `O=C(Nc1ccccc1)NN(C(=O)CCl)c1ccccc1` [PCM-0102957], the OTUB2 on OTUB2 (OTUB2A) turned out to be 0. The same compound had a PCAF on PCAF of 0. The compound further gave an NUDT7 at NUDT7 of 1. The viability at 48 h, 10 µM worked out at 3.7% in “in vitro [1]”, 1.1% in “in vitro [2]” and 0.8% in “in vitro [3]”.

`Cc1c(C#N)sc(NC(=O)CCl)c1C#N` [PCM-0102371] displayed an OTUB2 at OTUB2 (OTUB2A) of 0. The compound further yielded a PCAF at PCAF of 0. The compound also registered an NUDT7 on NUDT7 of 0. The viability at 48 h, 10 µM in “in vitro [1]” was 94.3%; in “in vitro [2]” it was 102%; in the series “in vitro [3]”, 87.5%.

The compound `Cc1ccc(CN2CCCN(C(=O)CCl)CC2)cc1.Cl` [PCM-0103056] displayed a BSA at BSA of 0. The compound further displayed an OTUB2 at OTUB2 (OTUB2A) of 0. On PCAF, the PCAF is 0. The NUDT7 on NUDT7 is listed as 0.

Consider `O=C(CCl)Nc1nc2ccc(Br)cc2s1` [PCM-0102126], for which the OTUB2 at OTUB2 (OTUB2A) stood at 0.12. The PCAF on PCAF amounted to 0. In addition, at NUDT7, the NUDT7 is on record as 1. Also, the viability at 48 h, 10 µM came to 83.6% in the series “in vitro [1]”, 92.7% in “in vitro [2]” and 92.5% in “in vitro [3]”.

As for `C=CC(=O)Nc1ccc(F)cc1` [PCM-0102111], at BSA, the BSA came to 0.2. At OTUB2 (OTUB2A), the OTUB2 is given as 0. In addition, the PCAF at PCAF is given as 0. In addition, on NUDT7, the NUDT7 is listed as 0.

Regarding `NS(=O)(=O)c1ccc2c(c1)CCN2C(=O)CCl` [PCM-0102229], the BSA at BSA is listed as 0. In addition, the OTUB2 on OTUB2 (OTUB2A) is 0.21. The PCAF on PCAF came out at 0. For the same compound, the NUDT7 at NUDT7 was found to be 0.

`O=C(CCl)N1CCSC1c1ccccc1F` (stereo not shown) [PCM-0102293] yielded a BSA at BSA of 0. Further, the OTUB2 on OTUB2 (OTUB2A) was determined as 0.12. For the same compound, on PCAF, the PCAF was 0. The compound further registered an NUDT7 on NUDT7 of 0.83.

On BSA, `O=C(CCl)N1c2ccccc2NC(=O)C12CCCC2` [PCM-0102159] showed a BSA of 0. Also, the OTUB2 on OTUB2 (OTUB2A) was 0. The compound further came in with a PCAF at PCAF of 0. In addition, the NUDT7 at NUDT7 worked out at 0.18.

At BSA, `C=CC(=O)Nc1ccccc1C` [PCM-0103000] gave a BSA of 0. The compound also returned an OTUB2 at OTUB2 (OTUB2A) of 0.12. On PCAF, this compound returned a PCAF of 0. The same compound came in with an NUDT7 on NUDT7 of 0.

`CN(C(=O)CCl)c1ccccc1` [PCM-0102368] registered a BSA at BSA of 0. Moreover, the OTUB2 on OTUB2 (OTUB2A) stood at 0. This compound gave a PCAF at PCAF of 0. The same compound gave an NUDT7 on NUDT7 of 0.
